Source: US4188398A, “Method for treating epilepsy” (priority 1978, dated 1980)

Experiments:
[1] = Maximum electroshock test
Procedure: The anticonvulsant action of the proposed preparation was tested on mice weighing 19 to 25 g and rats weighing 120 to 150 g by conducting maximum electroshock, corazol, strychnine, camphor, nicotine and arecoline tests.

[2] = Daily administration for eight weeks, rabbits (chronic toxicity); format: in vivo; conditions: 200 mg/kg intraperitoneally once a day
Procedure: The effects of daily administrations of the proposed anticonvulsant, carried out over prolonged periods of time, were studied on rabbits and rats.
A 2-percent colloidal solution of the proposed preparation was introduced intraperitoneally in doses of 200 mg/kg to five rabbits. This was done once a day for eight weeks. The same amounts of a colloidal solution of a carboxymethyl cellulose were administered intraperitoneally to three control rabbits.
Every day the animals' weight and body temperature were measured, and their general state was assessed. Once a week, a general blood analysis was made, the urine was analyzed for protein, blood and biliary pigments. Upon the end of the experiment, the animals were killed (the rabbits were destroyed by air embolism; the rats were decapitated). The liver, heart, kidneys, spleen, lungs and different parts of the small intestine and stomach of the freshly killed animals were taken for pathomorphological investigation.

[3] = Clinical study in epilepsy patients; format: in vivo, human (patients)
Procedure: The therapeutic effectiveness of the preparation was evaluated while treating different forms of epilepsy.
The patient's age was between 4 and 56 years with the period of sickness ranging from 2 to 18 years. The different forms of the disease fell into the following categories according to clinical and encephalographic data: polymorphous fits with a deep temporal or frontotemporal focus of epileptic activity; psychomotor fits of pseudo absentia epileptica; generalized tonico-clonic convulsive fits; true absentia epileptica with myoclonic atonic fits and cerebrovascular diseases of the central nervous system, resulting in temporal epileptic fits and polymorphous fits.
The duration of the course of treatment varied from 3 months to 3 years.
The preparation of the present invention was administered per os 3 to 6 times a day; each time a patient was given a tablet of 0.25 g so that the daily dose of the preparation was 0.75 to 1.5 g. […] In a group of 40 patients, examination of other electroencephalographic convulsive manifestations was accompanied by studying focal paroxysmal phenomena in the temporal lobes.

Question: With CC(C)Oc1ccc(C2CC(=O)NC2=O)cc1 (stereo not drawn) [proposed preparation, α-/para-isopropoxyphenyl/succinimide] as the molecule, how does the ED50 ([1]; Mus musculus, read-out: ED50 (Electroshock)) read?
Answer: 77 mg/kg

Question: What about the “protection index I=TD50/ED50, Electroshock” value ([1]; electroshock) of the same molecule?
Answer: 9.35

Question: And the “protection index PI (mean lethal dose / mean effective dose), Electroshock” value ([1]; electroshock)?
Answer: 28

Question: And the “anticonvulsant activity in maximum electroshock test” value ([1]; in words)?
Answer: anticonvulsant activity was only exhibited by the proposed preparation and milontin

Question: What about the “organ changes, macroscopic and microscopic histochemical investigation” value [2] of the same molecule?
Answer: no changes were observed

Question: And the “weight, body temperature, general state, blood and urine composition” value [2]?
Answer: no changes were registered in the weight, body temperature and general state of the animals

Question: And the “insomnia and disturbed sleep” value ([3]; administered shortly before bedtime)?
Answer: almost all the patients complained of insomnia and disturbed sleep

Question: And the “itching of the skin, weakness and dizziness” value ([3]; after 3 or 4 days of treatment)?
Answer: very few cases

Question: And the “time to discontinuation or lower frequency of seizures” value ([3]; after beginning of treatment, dose of 0.25 g)?
Answer: 7 to 8 days

Question: And the “therapeutic effect in convulsive forms of epilepsy” value ([3]; cases of diffusive electroencephalographic pathology)?
Answer: week therapeutic effect

Question: What about the “effect in secondary generalized seizures” value ([3]; clinically and electroencephalographically established focal changes) of the same molecule?
Answer: ineffective

Question: And the “depressing action upon the central nervous system” value ([3]; compared with other antiepileptic drugs)?
Answer: not as intense as that of other antiepileptic drugs

Question: And the “patients in whom fits discontinued” value ([3]; group of 40 patients, after 10 to 14 days, per os 0.75 to 1.5 g daily)?
Answer: 18 patients

Question: What about the “anticonvulsive effect versus milontin and celontin in psychomotor and convulsive fits” value ([3]; human, in vivo) of the same molecule?
Answer: somewhat more effective

Question: What about the “effect on minor epileptic fits associated with anterior trunkal localization of the epileptic focus” value ([3]; human, in vivo) of the same molecule?
Answer: the most effective in stopping minor epileptic fits

Question: And the “increased frequency of fits” value ([3]; human, in vivo)?
Answer: never resulted in an increased frequency of fits

Question: What about the nausea ([3]; human, in vivo) of the same molecule?
Answer: Some patients complained of nausea

Question: What about the “potentiating effect upon convulsive paroxysms” value ([3]; human, in vivo) of the same molecule?
Answer: absence of a potentiating effect upon convulsive paroxysms

Question: And the “weakness or dizziness in the day time” value ([3]; human, in vivo)?
Answer: does not cause weakness or dizziness in the day time

Question: What about the sleep ([3]; last dose 3 or 4 hours before bedtime) of the same molecule?
Answer: normal sleep was soon restored

Question: And the “allergic manifestations or somatic abnormalities” value ([3]; patients)?
Answer: no allergic manifestations or somatic abnormalities were observed

Question: What about the “effect on ambivalence of reactions, ability for mental work and night sleep” value ([3]; patients) of the same molecule?
Answer: improves the ambivalence of reactions and the ability for mental work; night sleep becomes deeper and longer

Question: And the “effect on mood, affectivity, anxieties, stresses” value ([3]; patients)?
Answer: improves the general mood of patients, reduces affectivity, eliminates anxieties and relieves stresses

Question: And the “effect upon aggressive, quarrelsome and importune epileptics” value ([3]; patients)?
Answer: soothing effect

Question: And the “laboratory analyses of blood and urine” value ([3]; patients)?
Answer: no pathological changes

Question: What about the “pathologic changes in the blood system” value ([3]; patients) of the same molecule?
Answer: no pathologic changes in the blood system

Question: And the “therapeutic effect in polymorphous paroxysms and fits of the temporal type” value ([3]; per os 0.75 to 1.5 g daily)?
Answer: the most effective in cases of polymorphous paroxysms and fits of the temporal type

Question: What about the “memory of actual events” value ([3]; psychologic examination) of the same molecule?
Answer: improves the memory of actual events

Question: What about the “reduction of frequency of fits” value ([3]; remaining 22 of 40 patients, per os 0.75 to 1.5 g daily) of the same molecule?
Answer: reduced from 3 to 4 a week to 2 to 3 a month

Question: What about the sedative effect ([3]; single doses of 0.5 g) of the same molecule?
Answer: weak and short-lived sedative effect

Question: What about the toxic neurological complications ([3]; uninterrupted courses up to eight months) of the same molecule?
Answer: does not result in any toxic neurological complications
